Assay results from patent US20240254115A1 (ACONDICIONAMIENTO TARRASENSE, priority 2021, published 2024).

Experiments:
human σ2/TMEM97 receptor = target: T1, human σ2/TMEM97 receptor (Homo sapiens, UniProt Q5BJF2); test: Binding assay to human σ2/TMEM97 receptor; conditions: transfected HEK-293 membranes, 10 nM [3H]-DTG, 25° C. 120 minutes; + may also stand for 1-50% inhibition at 1 or 10 μM; read-out: Binding σ-2 Ki
T1 construct: expressed in transfected cells; host or cells: HEK-293
Summary of the method: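 Membranes from transfected HEK-293 cells (15 µg) were incubated with 10 nM [3H]-DTG in 50 mM Tris-HCl pH 8.0 for 120 min at 25 °C, with 10 µM haloperidol defining non-specific binding. Filtration and scintillation counting followed. Compounds tested as % inhibition at 1 or 10 µM, or at five concentrations for Ki.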

human σ1 receptor = target: T2, human σ1 receptor (Homo sapiens, UniProt Q99720); test: Human σ1 receptor radioligand assay; conditions: transfected HEK-293 membranes, 5 nM [3H](+)-pentazocine, 37° C. 120 minutes; + may also stand for 1-50% inhibition at 1 or 10 μM; read-out: Binding σ-1 Ki
T2 construct: expressed in transfected cells; host or cells: HEK-293
T2 sequence (Q99720 whole entry): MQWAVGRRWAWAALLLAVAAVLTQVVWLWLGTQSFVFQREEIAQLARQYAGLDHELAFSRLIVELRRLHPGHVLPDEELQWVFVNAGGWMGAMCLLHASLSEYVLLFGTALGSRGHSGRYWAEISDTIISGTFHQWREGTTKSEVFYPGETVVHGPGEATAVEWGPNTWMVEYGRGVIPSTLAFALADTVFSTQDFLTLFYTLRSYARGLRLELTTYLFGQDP
Summary of the method: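 Ki was derived from five test concentrations, or % inhibition was measured at a single 1 or 10 μM dose, against 5 nM [3H](+)-pentazocine. Incubation was 120 min at 37° C in 50 mM Tris-HCl pH 8 with 7 μg HEK-293 membranes, and 10 μM haloperidol set non-specific binding. Bound radioactivity was counted after filtration.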

sigma-2 (σ2) site = sigma-2 (σ2) site (Homo sapiens, UniProt Q5BJF2); conditions: background statement; cited from earlier work
Sequence of sigma-2 (σ2) site (Q5BJF2 whole entry): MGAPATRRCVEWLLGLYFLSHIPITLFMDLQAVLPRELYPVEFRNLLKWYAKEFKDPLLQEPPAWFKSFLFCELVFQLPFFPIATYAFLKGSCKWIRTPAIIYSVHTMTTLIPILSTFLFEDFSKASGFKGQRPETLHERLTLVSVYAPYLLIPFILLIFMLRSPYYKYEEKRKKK

[1] = system: spared nerve injury (SNI) mice; conditions: SNI mice model of neuropathic pain; cited from earlier work

T1 sequence (Q5BJF2 whole entry): as above

Compound	Ki (human σ2/TMEM97 receptor) [nM]	Ki (human σ1 receptor) [nM]	affinity for the sigma-2 (σ2) site (sigma-2 (σ2) site)	mechanical hypersensitivity [1]
CN(Cc1ccccc1F)C1CCN(S(=O)(=O)c2ccc(N3CCC(F)(F)CC3)nc2)CC1 [Example 172, 1-((6-(4,4-Difluoropiperidin-1-yl)pyridin-3-yl)sulfonyl)-N-(2-fluorobenzyl)-N-methylpiperidin-4-amine]	< 100	< 100	–	–
CN(Cc1ccc(C#N)c(F)c1)C1CCN(S(=O)(=O)c2ccc(N3CCC(F)(F)CC3)nc2)CC1 [Example 173, 4-(((1-((6-(4,4-Difluoropiperidin-1-yl)pyridin-3-yl)sulfonyl)piperidin-4-yl)(methyl)amino)methyl)-2-fluorobenzonitrile]	< 100	> 1000	–	–
CN(Cc1cc(F)ccc1F)C1CCN(S(=O)(=O)c2ccc(N3CCC(F)(F)CC3)nc2)CC1 [Example 174, N-(2,5-Difluorobenzyl)-1-((6-(4,4-difluoropiperidin-1-yl)pyridin-3-yl)sulfonyl)-N-methylpiperidin-4-amine]	100 to 500	100 to 500	–	–
CN(Cc1ccccc1)[C@H]1CC[C@H](NS(=O)(=O)c2ccc(N3CCC(F)(F)CC3)nc2)CC1 [Example 175, N-((1r,4r)-4-(Benzyl(methyl)amino)cyclohexyl)-6-(4,4-difluoropiperidin-1-yl)pyridine-3-sulfonamide]	< 100	100 to 500	–	–
CN(Cc1ccccc1)[C@H]1CC[C@H](NS(=O)(=O)c2ccc(N3CCC4(CCCO4)CC3)nc2)CC1 [Example 176, N-((1r,4r)-4-(Benzyl(meth-yl)amino)cyclohexyl)-6-(1-oxa-8-azaspiro[4.5]decan-8-yl)pyridine-3-sulfonamide]	< 100	> 1000	–	–
CN(CC1CCOCC1)[C@H]1CC[C@H](NS(=O)(=O)c2ccc(N3CCC4(CCCO4)CC3)nc2)CC1 [Example 177, N-((1r,4r)-4-(Methyl((tetrahydro-2H-pyran-4-yl)methyl)amino)cyclohexyl)-6-(1-oxa-8-azaspiro[4.5]decan-8-yl)pyridine-3-sulfonamide]	< 100	> 1000	–	–
CN(Cc1ccccc1F)[C@H]1CC[C@H](NS(=O)(=O)c2ccc(N3CCC4(CCCO4)CC3)nc2)CC1 [Example 178, N-((1r,4r)-4-((2-Fluorobenz-yl)(methyl)amino)cyclohexyl)-6-(1-oxa-8-azaspiro[4.5]decan-8-yl)pyridine-3-sulfonamide]	< 100	> 1000	–	–
CN(Cc1cc(F)ccc1F)[C@H]1CC[C@H](NS(=O)(=O)c2ccc(N3CCC4(CCOC4)CC3)nc2)CC1 [Example 179, N-((1r,4r)-4-((2,5-Difluoro-benzyl)(methyl)amino)cyclohexyl)-6-(2-oxa-8-azaspiro[4.5]decan-8-yl)pyridine-3-sulfonamide]	< 100	> 1000	–	–
CN(Cc1ccc(F)c(F)c1)[C@H]1CC[C@H](NS(=O)(=O)c2ccc(N3CCC4(CCOC4)CC3)nc2)CC1 [Example 180, N-((1r,4r)-4-((3,4-Difluoro-benzyl)(methyl)amino)cyclohexyl)-6-(2-oxa-8-azaspiro[4.5]decan-8-yl)pyridine-3-sulfonamide]	< 100	> 1000	–	–
CN(CCC(C)(C)C)[C@H]1CC[C@H](NS(=O)(=O)c2ccc(N3CCC4(CCOC4)CC3)nc2)CC1 [Example 181, N-((1r,4r)-4-((3,3-Dimethylbut-yl)(methyl)amino)cyclohexyl)-6-(2-oxa-8-azaspiro[4.5]decan-8-yl)pyridine-3-sulfonamide]	< 100	500 to 1000	–	–
CN(CC(C)(C)C)[C@H]1CC[C@H](NS(=O)(=O)c2ccc(N3CCC4(CCOC4)CC3)nc2)CC1 [Example 182, N-((1r,4r)-4-(Methyl(neopentyl)a-mino)cyclohexyl)-6-(2-oxa-8-azaspiro[4.5]decan-8-yl)pyridine-3-sulfonamide]	500 to 1000	> 1000	–	–
CN(CC1CCOCC1)[C@H]1CC[C@H](NS(=O)(=O)c2ccc(N3CCC4(CCOC4)CC3)nc2)CC1 [Example 183, N-((1r,4r)-4-(Methyl((tetrahydro-2H-pyran-4-yl)methyl)amino)cyclohexyl)-6-(2-oxa-8-azaspiro[4.5]decan-8-yl)pyridine-3-sulfonamide]	500 to 1000	500 to 1000	–	–
(+)-SKF-10047	–	–	micromolar affinity	–
UKH-1114	–	–	–	relieved mechanical hypersensitivity
